Results from patent US20080234368A9, “Therapeutic compositions and methods of use” (Trustees of Dartmouth College, priority 1998, published 2008).

Legend:
COX-2 enzymatic activity = target: T1, COX-2 enzymatic activity (Mus musculus, UniProt Q05769); assay: Prostaglandin production in RAW cells with enzyme synthesis already induced; assay type: cell-based; conditions: added after enzyme synthesis induced; data not shown
T1 construct: added to RAW cells in which synthesis of these two enzymes has already been induced; endogenous in cells; host or cells: RAW 264.7 mouse macrophage-like cells, enzyme synthesis pre-induced
T1 sequence (Q05769 18-604): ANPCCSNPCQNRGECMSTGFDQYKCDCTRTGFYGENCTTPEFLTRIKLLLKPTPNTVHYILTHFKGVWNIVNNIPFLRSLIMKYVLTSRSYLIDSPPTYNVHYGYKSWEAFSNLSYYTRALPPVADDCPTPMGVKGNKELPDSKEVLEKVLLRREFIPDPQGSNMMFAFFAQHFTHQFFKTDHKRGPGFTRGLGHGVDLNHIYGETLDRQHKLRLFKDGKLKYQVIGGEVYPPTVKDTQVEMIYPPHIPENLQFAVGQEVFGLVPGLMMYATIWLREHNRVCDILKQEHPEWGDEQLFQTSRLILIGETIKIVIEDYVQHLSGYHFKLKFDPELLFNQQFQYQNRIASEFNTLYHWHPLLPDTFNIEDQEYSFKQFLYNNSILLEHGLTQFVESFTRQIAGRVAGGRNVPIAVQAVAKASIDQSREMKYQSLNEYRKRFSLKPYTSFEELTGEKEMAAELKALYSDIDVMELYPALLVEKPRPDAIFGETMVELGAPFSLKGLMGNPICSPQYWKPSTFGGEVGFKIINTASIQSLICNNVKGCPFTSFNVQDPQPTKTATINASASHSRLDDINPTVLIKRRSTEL
Description: These effects of CDDO have been seen in primary mouse macrophages, a mouse macrophage-like tumor cell line (RAW 264.7), and in non-neoplastic human colon fibroblasts. […] Neither iNOS nor COX-2 expression can be detected in these cells until they are stimulated by an inflammatory mediator such as IFN-γ, or LPS. […] The above effects on INOS and COX-2 are also reflected in the cumulative production of their respective enzyme products, NO and PGE2, as measured in primary macrophages (FIG. 14C). […] Likewise, the actions of CDDO are not blocked by the glucocorticoid antagonist, RU-486, which is known to bind to the glucocorticoid receptor (data not shown). In these regards, CDDO is identical to the other oleanolic acid derivatives previously studied (Suh et al., 1998).

[1] = test system: NO production in primary macrophages; assay: Suppression of NO production in primary macrophages (FIG. 14C); assay type: cell-based, mouse; conditions: levels as low as 10^−9 M; IFN-γ 10 ng/ml, 48 h
Method: (§1) FIG. 14(A) illustrates Western blots; primary mouse macrophages; IFN-γ, 10 ng/ml; LPS, 2 ng/ml were added to cultures together with triterpenoids or dexamethasone (concentrations shown as […]); cells were harvested at 12 h. FIG. 14(B) illustrates Northern blots, RAW 264.7 macrophage-like cell line. IFN-γ, 10 ng/ml; LPS, 1 ng/ml; TNF-α, 10 ng/ml, were added to cultures together with CDDO or dexamethasone. RNA prepared after 12 h; GAPDH used as a loading control. FIG. 14(C) illustrates suppression of production of NO and PGEF in primary macrophages. For NO studies, cells were treated with IFN-γ, 10 ng/ml, together with CDDO (M), dexamethasone (O), TP-82 (□), or oleanolic acid (A). After 48 h, supernatants were analyzed for NO by the Griess reaction. For PGEF studies, cells were treated with IFN-γ, 5 ng/ml, and LPS, 5 ng/ml, together with the same set of inhibitors. After 48 h, PGE was measured in supernatants by immunoassay. Control values (no inhibition) for NO and PGE2 were 4.7 nmol/[…] and 2.2 ng/ml/2×10^5 cells, respectively. FIGS. (14D) and (14E) illustrate (human colon myofibroblasts) ^18Co cells grown in MEM/10% FBS; other methods are the same as reported above for macrophages. FIG. 14(D) illustrates Northern blots showing dose-response for suppression of COX-2 mRNA after induction with IL-1β (30 pg/ml). CDDO was added together with IL-1. […]

iNOS mRNA = assay: Northern blot for iNOS mRNA in RAW 264.7 cells; assay type: cell-based, mouse; conditions: CDDO 10^−6 M, RAW 264.7, 12 h
Method: as §1

[2] = test system: THP-1 monocytic leukemia line; assay: Differentiation of leukemia cells (data not shown); assay type: cell-based, human; conditions: by itself or in combination with TGF-β1
COX-2 [3] = assay: Western blot for IL-1β-induced COX-2 protein in 18Co colon myofibroblasts; assay type: cell-based, human; conditions: 18Co cells, IL-1β 30 pg/ml
Method: as §1

COX-2 [4] = assay: TPA-induced COX-2 in 184B5/HER mammary epithelial cells; assay type: cell-based, human; conditions: 184B5/HER cells
Description: (§2) These cells were selected because of the importance of stromal cell COX-2 in colon carcinogenesis (Oshima et al., 1996). […] Although CDDO effectively blocks the induction of COX-2 by agents such as IFN-γ, LPS, TNF-α, and IL-1, CDDO is ineffective when TPA is used as the inducer of COX-2. This has been seen in 18Co cells, as well as in the human mammary epithelial cell line, 184B5/HER (Zhai et al., 1993).

COX-2 [5] = assay: TPA-induced COX-2 in 18Co cells; assay type: cell-based, human
Description: as §2

[6] = test system: IFN-γ-induced NO production in mouse macrophages; assay: Inhibition of IFN-γ induced NO production in mouse macrophages; assay type: cell-based; conditions: read-out: IC50, inhibition of IFN-γ induced NO production
Method: The inhibitory activities of these compounds and dexamethasone on IFN-γ induced NO production in mouse macrophages is shown below in Table 1. The following procedure for the assay ws used. Macrophages were harvested from female mice injected intraperitoneally four days previously with 4% thioglycollate. These cells were seeded in 96-well tissue culture plates and incubated with 4 ng/mL IFN-γ in the presence or absence of inhibitory test compounds. After 48 hours NO production (measured as nitrite by the Griess reaction) was determined. Full details of the assay are given in Ding et al., 1990; Bogdan et al., 1992.

COX-2 mRNA = assay: Northern blot for COX-2 mRNA in RAW 264.7 cells; assay type: cell-based, mouse; conditions: CDDO 10^−6 M, RAW 264.7, 12 h
Method: as §1

Compound: CC1(C)CC[C@]2(C(=O)O)CC[C@]3(C)[C@H](C(=O)C=C4[C@@]5(C)C=C(C#N)C(=O)C(C)(C)[C@@H]5CC[C@]43C)[C@@H]2C1 [Compound 6, 2-cyano-3,12-dioxoolean-1,9-dien-28-oic acid]
- immediate effect on prostaglandin production (direct inhibition of COX-2) (COX-2 enzymatic activity): no immediate effect
- inhibition of cumulative NO production [1]: Significant inhibition
- lowering of iNOS mRNA expression (iNOS mRNA): greater than 75%
- differentiative effects [2]: differentiative effects
- induction of COX-2 protein (COX-2 [3]): blocked induction
- blocking of COX-2 induction with TPA as inducer (COX-2 [4]): ineffective
- blocking of COX-2 induction with TPA as inducer (COX-2 [5]): ineffective
- IC50 [6]: 1 nM
- lowering of COX-2 mRNA expression (COX-2 mRNA): greater than 75%
